Reference: ChEMBL document CHEMBL5058541, “EUbOPEN Chemogenomics Library 2 (NanoBRET)” (2022)

How the values were obtained:
[1] = target: T1, Protein ENL (Homo sapiens) (UniProt Q03111); test: Thermal Shift Assay. Domain: start/stop M1-A148; conditions: Compound concentration 25.0 uM, Protein concentration 2.0 uM
T1 sequence (whole entry): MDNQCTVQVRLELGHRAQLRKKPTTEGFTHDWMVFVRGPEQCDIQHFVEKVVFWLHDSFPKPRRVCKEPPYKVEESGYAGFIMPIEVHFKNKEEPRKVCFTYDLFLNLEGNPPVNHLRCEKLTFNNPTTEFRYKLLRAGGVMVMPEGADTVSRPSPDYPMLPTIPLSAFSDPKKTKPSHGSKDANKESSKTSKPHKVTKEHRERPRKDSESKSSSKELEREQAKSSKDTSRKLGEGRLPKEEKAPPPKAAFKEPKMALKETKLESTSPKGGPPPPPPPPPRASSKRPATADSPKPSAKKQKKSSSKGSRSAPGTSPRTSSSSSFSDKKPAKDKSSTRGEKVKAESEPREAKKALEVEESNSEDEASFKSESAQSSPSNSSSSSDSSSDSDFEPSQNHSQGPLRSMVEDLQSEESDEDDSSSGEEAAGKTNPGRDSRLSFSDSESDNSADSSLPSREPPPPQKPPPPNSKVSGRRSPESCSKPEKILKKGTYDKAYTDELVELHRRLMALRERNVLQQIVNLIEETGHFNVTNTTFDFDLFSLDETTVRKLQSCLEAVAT

Peregrin (Homo sapiens) = target: T2, Peregrin (Homo sapiens) (UniProt P55201); conditions: Compound concentration 20.0 uM, Protein concentration 2.0 uM, Result type QC Liability
T2 sequence (whole entry): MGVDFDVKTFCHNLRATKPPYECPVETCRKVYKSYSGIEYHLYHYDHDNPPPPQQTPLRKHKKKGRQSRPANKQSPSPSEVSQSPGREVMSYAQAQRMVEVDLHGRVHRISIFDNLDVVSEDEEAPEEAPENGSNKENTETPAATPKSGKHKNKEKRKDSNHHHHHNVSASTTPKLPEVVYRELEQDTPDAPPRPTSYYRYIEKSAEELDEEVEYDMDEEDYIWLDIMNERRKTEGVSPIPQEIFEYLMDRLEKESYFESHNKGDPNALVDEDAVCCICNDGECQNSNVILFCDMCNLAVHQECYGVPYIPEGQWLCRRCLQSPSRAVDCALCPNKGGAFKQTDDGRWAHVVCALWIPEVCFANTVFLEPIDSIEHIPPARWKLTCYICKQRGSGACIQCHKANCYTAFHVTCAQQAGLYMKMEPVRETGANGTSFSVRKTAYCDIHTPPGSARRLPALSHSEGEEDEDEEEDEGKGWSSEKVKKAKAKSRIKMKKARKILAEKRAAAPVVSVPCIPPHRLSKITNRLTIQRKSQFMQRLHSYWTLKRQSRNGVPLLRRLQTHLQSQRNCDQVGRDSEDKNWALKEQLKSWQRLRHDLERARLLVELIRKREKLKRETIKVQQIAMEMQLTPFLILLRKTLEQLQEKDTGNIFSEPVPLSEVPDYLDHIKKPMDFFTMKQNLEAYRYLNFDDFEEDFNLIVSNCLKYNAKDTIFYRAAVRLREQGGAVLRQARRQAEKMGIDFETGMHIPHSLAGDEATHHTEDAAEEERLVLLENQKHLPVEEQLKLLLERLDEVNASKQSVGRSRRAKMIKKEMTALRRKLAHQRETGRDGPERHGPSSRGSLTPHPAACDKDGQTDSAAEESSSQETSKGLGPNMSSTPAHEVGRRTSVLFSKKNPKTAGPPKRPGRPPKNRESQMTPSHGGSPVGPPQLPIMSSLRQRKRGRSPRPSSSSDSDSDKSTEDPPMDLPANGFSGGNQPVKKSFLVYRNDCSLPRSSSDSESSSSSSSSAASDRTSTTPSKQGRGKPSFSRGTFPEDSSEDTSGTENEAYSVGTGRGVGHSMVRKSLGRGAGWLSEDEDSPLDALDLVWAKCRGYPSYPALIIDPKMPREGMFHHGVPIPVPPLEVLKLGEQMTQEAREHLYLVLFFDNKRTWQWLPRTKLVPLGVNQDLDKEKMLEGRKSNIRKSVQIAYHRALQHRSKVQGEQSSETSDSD

[2] = target: T3, Protein AF-9 (Homo sapiens) (UniProt P42568); conditions: Compound concentration 25.0 uM, Protein concentration 2.0 uM
T3 sequence (whole entry): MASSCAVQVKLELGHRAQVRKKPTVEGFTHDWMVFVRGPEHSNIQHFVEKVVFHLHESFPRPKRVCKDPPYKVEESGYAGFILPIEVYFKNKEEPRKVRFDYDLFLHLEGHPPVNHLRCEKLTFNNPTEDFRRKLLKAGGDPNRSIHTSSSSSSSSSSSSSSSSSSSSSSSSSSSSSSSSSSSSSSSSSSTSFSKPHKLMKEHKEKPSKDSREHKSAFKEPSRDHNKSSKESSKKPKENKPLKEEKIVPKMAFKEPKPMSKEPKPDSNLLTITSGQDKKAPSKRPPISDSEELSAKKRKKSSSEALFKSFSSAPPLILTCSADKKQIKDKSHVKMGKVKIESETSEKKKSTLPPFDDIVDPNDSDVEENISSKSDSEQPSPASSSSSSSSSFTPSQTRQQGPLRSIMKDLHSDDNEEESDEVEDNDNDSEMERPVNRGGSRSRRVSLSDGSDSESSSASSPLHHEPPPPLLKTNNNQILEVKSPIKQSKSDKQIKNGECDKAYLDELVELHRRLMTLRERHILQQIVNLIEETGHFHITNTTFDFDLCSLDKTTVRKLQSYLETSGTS
Description: Thermal Shift Assay. Domain: start/stop M1-D141

CN(C)C(=O)c1ccc(-c2cc(C(=O)N[C@@H]3CCc4ccccc43)no2)cc1O
ΔTm [1]: 3.61 c
ΔTm (Peregrin (Homo sapiens)): -0.349 c
ΔTm [2]: 5.15 c
